Test results from patent publication US10300049B2, “Myeloid differentiation inducing agents” (CASE WESTERN RESERVE UNIVERSITY, priority 2007, dated 2019).

Assays:
HL-60 cells [1] = assay: NBT reduction assay of differentiation in HL-60 cells; type: cell-based, human; conditions: for NBT reduction, ATRA alone (%) / NBT reduction, Decitabine alone (%): 4 days; for cells differentiated, NBT reduction assay: HL-60 cells, 4 days (FIG. 3); for NBT (%): 10 days
Text: The NBT screen works due to changes in the oxidoreductases during differentiation that lead to increases in rates of NBT reduction. NBT is reduced due to the production of superoxide that is catalyzed by an NADPH oxidase. […] A quantitative NBT reduction assay is ideal for this type of screen as it is simple, sensitive, quantitative, requires minimal cells, has been proven to have low well to well variability, and the amount of reduced NBT is proportional to the number of cells reducing the dye as well as the amount reduced by each cell.
(§1) […] […] Differentiation is determined in the 96 well plates by incubating the cells with 1 mg/ml of NBT and 200 ng/ml of PMA as the stimulant for the respiratory burst for 35 minutes at 37° C. The reaction can then be stopped with HCL and the formazan will be solubilized with DMSO. Finally, the reaction mixture will be read spectrophotometricaly at 560 nm in a plate reader.
as §1, with “will” for “can”
The assays are done using the colorimetric process. The NBT reduction assay measures the respiratory burst and is done by stimulating the respiratory burst in cells with PMA and then looking for a color change in the NBT dye.

HL-60 cells [2] = assay: Flow cytometry of CD11b and CD14 cell surface markers; type: cell-based, human; conditions: for CD11b positive / CD14 positive: 4 days
Protocol: HL-60 cells were treated with the indicated compounds for 4 days, the cells were stained with CD11b-PE and CD14-FITC, and flow cytometric analysis was performed.

[3] = system: HL-60 subcutaneous tumors; assay: Established HL-60 subcutaneous tumor xenograft in nude mice; type: in vivo
Protocol: Nude mice (5 per experimental group) were injected with 5×10^7 HL-60 cells bilaterally into the flank. 9 days after tumor cell inoculation, the indicated drugs were injected I.P. three times a week for 3 weeks. […] Representative picture of the mice at the end of the study period (B). Representative picture of tumors dissected from the indicated mice. (C). Average weights of tumors dissected from all mice (D).
(§2) In order to further assess the in vivo potential of 6BT and Securinine, mouse xenograft experiments were performed. In the first model, the ability of 6BT and Securinine to inhibit established HL-60 subcutaneous leukemic tumor growth in nude mice was assessed. […] In the second model system, the ability of 6BT to prevent either HL-60 or MV-411 tumor formation in nude mice was assessed.
(§3) This Example assed the effects of securinine and its analogues in mice. […] HL-60 cell is an AML cell line commonly used for in-vitro studies and typically they are classified as M2 subtype. […] Therefore this was the highest dose that could be safely utilized.
Next we repeated the mouse xenograft experiments using i.p. drug administration (20 mg/kg), but with twice a day dosing again using HL-60 cell tumors.
Securinine (20 mg/kg) or vehicle ([…]) was injected i.p. into mice starting 10 days after HL-60 cell inoculation bilaterally into the flanks of nude mice (5 mice per group).

GABA A receptor = conditions: compared with securinine; cited from earlier work
HL-60 cells [4] = assay: Cell cycle, propidium iodide flow cytometry; type: cell-based, human; conditions: 4 days
Protocol: HL-60 cells were treated with the indicated compounds for 4 days and the cells were stained with propidium iodide and analyzed by flow cytometry.

HL-60 cells [5] = assay: Morphology, cytospin with Wright-Giemsa stain; type: cell-based, human; conditions: 4 days
Protocol: HL-60 cells were treated with the indicated compounds for 4 days. Cytospin preparations were prepared and the cells were stained with Wright-Giemsa stain.

[6] = system: normal human lymphocytes, normal human bone marrow, mouse embryonic fibroblasts, and human umbilical vein endothelial cells; assay: Toxicity on normal cells; type: cell-based
Text: In order to further assess the toxicity of 6BT and Securinine, normal human lymphocytes, normal human bone marrow, mouse embryonic fibroblasts, and human umbilical vein endothelial cells were examined.

p38delta = assay: Gene expression (microarray, real time PCR) in HL-60 cells; type: cell-based, human
Protocol: FIG. 14 illustrates graphs showing 6BT and securinine regulate the expression of genes that may play important roles in myeloid differentiation. HL-60 cells were treated with the indicated compounds for 1 or 3 days and total RNA was prepared. The relative expression of the indicated genes was assessed by real time PCR.
In order to further assess the signaling pathways of 6BT and securinine as well as to further elucidate the myeloid differentiation program in general, gene microarray studies were performed. These initial studies assessed the gene expression pattern at 16 and 72 hours after treatment. […] Several of these genes are known to be involved in the differentiation of non-hematopoietic cells such as neuron, muscle, and or keratinocyte differentiation. Selected examples of genes whose expression is strongly regulated by securinine and 6BT that have been verified is seen in […].

p44/p42 and p38 = assay: Phospho-specific Western blot of p44/p42 and p38 in HL-60 cells; type: cell-based, human; conditions: 15 to 60 minutes
Protocol: FIG. 13 illustrates an immunoblot showing 6BT and Securinine activate both p44/p42 and p38. HL-60 cells were treated with the indicated compounds for 15, 20, 46, or 60 minutes and the cells were lysed. Western blot analysis was performed with phospho-specific antibodies to p44/p42 and p38 as well as the actin anibody.

Bcl-2 = Bcl-2 Western blot in HL-60 cells; type: cell-based, human; conditions: 1, 3, or 5 days
Protocol: (§4) HL-60 cells were treated with the indicated compounds for 1, 3, or 5 days and cells were lysed. Western blot analysis was performed with p21, Bcl-2, and actin antibodies.

CEBPβ = CEBPβ expression by real time PCR in HL-60 cells; type: cell-based, human; conditions: 1, 3, or 5 days
Protocol: (§5) FIG. 11 illustrates graphs showing securinine and 6BT downregulate c-myc expression and upregulate CEBPB. HL-60 cells were treated with the indicated compounds for 1, 3, or 5 days and total RNA was prepared. The relative expression of c-myc and CEPβ was determined by real time PCR.

OCI-AML3 cells = assay: NBT reduction assay in OCI-AML3 cells; type: cell-based; conditions: 4 days
Protocol: The two most promising compounds (compound 2A and compound 2B) were further tested for their differentiation activity in several additional AML cell lines as compared to securinine (FIG. 17). […] In all three cell lines tested, a dose of only 2.5 uM of compound 2B was sufficient to induce nearly complete differentiation.
The above indicated cells were treated for 4 days and the NBT reduction assay was performed. The X-axis refers to the cell treatments and the Y-axis denotes the percentage of differentiation as measured by the NBT Reduction assay.

c-myc = c-myc expression by real time PCR in HL-60 cells; type: cell-based, human; conditions: 1, 3, or 5 days
Protocol: as §5

[7] = known; cited from earlier work
[8] = system: primary patient leukemic samples; assay: Differentiation and cell death in other AML cell lines and primary patient leukemic samples; type: cell-based, human
Protocol: FIGS. 7(A-B) illustrate 6BT and securinine have potent differentiation and cell death effects on primary leukemic samples. Primary patient leukemic samples were stained with CD34+ and sorted by flow cytometry. Leukemic cells were treated with the indicated compounds (6BT […]) for up to 7 days. A. Representative pictures showing morphological differentiation of primary patient samples B. 6BT and Securinine treated primary leukemic cells show either differentiation by NBT reduction or cell death.
In several cases, the compounds were able to induce a higher amount of differentiation than ATRA. It should be noted, that though ATRA is only clinically useful for APL, it is well known to potently induce the differentiation of many other AML cell lines in vitro. […] Though the exact mechanisms are not yet clear, certain leukemic cells appear to preferentially undergo cell death in response to 6BT and Securinine prior to full differentiation.
We then tested the effects of securinine on patient samples. […] Unfortunately, many of the patient samples were not suitable for analysis. A significant portion of the cells that were obtained were either nonviable or contaminated with bacteria.

p21 = p21 Western blot in HL-60 cells; type: cell-based, human; conditions: 1, 3, or 5 days
Protocol: as §4

60 cancer cell lines = conditions: highest concentration used 100 μM; cited from earlier work
[9] = Toxicity, tolerability and seizures in mice
Protocol: as §2, §3
We performed a preliminary test with the two most promising analogues, compound 2A and compound 2B to verify their safety.

## CC1=C(/C=C/C(C)=C/C=C/C(C)=C/C(=O)O)C(C)(C)CCC1 [ATRA, all-trans-retinoic acid, reference compound]
HL-60 cells [1]; ATRA 3 nM
  NBT reduction, ATRA alone (%): 7%
HL-60 cells [1]; ATRA 9 nM
  NBT reduction, ATRA alone (%): 9%
HL-60 cells [1]; ATRA 26 nM
  NBT reduction, ATRA alone (%): 16%
HL-60 cells [1]; ATRA 80 nM
  NBT reduction, ATRA alone (%): 37%
HL-60 cells [1]; ATRA 250 nM
  NBT reduction, ATRA alone (%): 59%
HL-60 cells [1]
  cells differentiated, NBT reduction assay: ~95%
HL-60 cells [2]; 1 μM
  CD11b positive: 77%
  CD14 positive: 8%
[3]; 15 mg/kg twice a day
  tumor growth compared to vehicle treated mice: did not show any difference in tumor growth

## O=C1C=C2C=C[C@@H]3C[C@@]2(O1)[C@@H]1CCCCN31 [Allosecurinine, allosecurinine]
HL-60 cells [1]; 0.06 μM
  NBT (%): 20%
HL-60 cells [1]; 1.25 μM
  NBT (%): 25%
HL-60 cells [1]; 2.5 μM
  NBT (%): 40%
HL-60 cells [1]; 5 μM
  NBT (%): 50%
HL-60 cells [1]; 10 μM
  NBT (%): 80%
GABA A receptor
  GABA A receptor affinity: decreased GABA A receptor affinity

## Cc1cc(O)nc2cc3oc4ccccc4c3cc12 [Compound 375, 4-methyl[1]benzofuro[3,2-g]quinolin-2-ol]
HL-60 cells [2]; 10 μM
  CD11b positive: 64%
  CD14 positive: 19%
HL-60 cells [4]
  cell cycle phase in which cells accumulate: accumulation in G2/M
HL-60 cells [5]
  morphologic changes: reproducible, but less pronounced changes

## Nc1ncn([C@H]2C[C@H](O)[C@@H](CO)O2)c(=O)n1 [Decitabine, reference compound]
HL-60 cells [1]; Decitabine 10 ng/ml
  NBT reduction, Decitabine alone (%): 14%
HL-60 cells [1]; Decitabine 50 ng/ml
  NBT reduction, Decitabine alone (%): 23%
HL-60 cells [1]; Decitabine 100 ng/ml
  NBT reduction, Decitabine alone (%): 26%

## O=C1C=C2C=C[C@@H]3C[C@@]2(O1)[C@H]1CCCCN31 [Securinine]
[6]
  toxicity on normal cells: induced cell death occurred at doses higher than those required for activity on leukemia cells
p38delta
  p38delta expression: upregulated
p44/p42 and p38
  phosphorylation of p44/p42 and p38: rapid phosphorylation of p44/p42 and p38
HL-60 cells [1]
  cells differentiated, NBT reduction assay: ~95%
HL-60 cells [1]; leukemic cells in our studies
  concentration at which significant differentiation or cell death effects upon the leukemic cells occur: ~10 µM
HL-60 cells [1]; low concentrations, NBT reduction assay
  enhancement of differentiation induced by ATRA and decitabine: capable of enhancing the differentiation induced by both ATRA and decitabine
Bcl-2
  Bcl-2 protein level: downregulation of Bcl-2
CEBPβ
  CEBPβ expression: time-dependent upregulation of CEBPβ
OCI-AML3 cells
  differentiation activity in OCI-AML3 cells: modest differentiation activity
c-myc
  c-myc expression: potently downregulate c-myc
[7]
  metabolism in vivo: extremely rapid metabolism in vivo
  seizures: lead to seizures
HL-60 cells [2]; 10 μM
  CD11b positive: 87%
  CD14 positive: 86%
HL-60 cells [2]; with ATRA and decitabine, data not shown
  synergy in upregulation of CD11b: synergize in the upregulation of CD11b
HL-60 cells [4]
  cell cycle phase in which cells accumulate: accumulation of cells in G0/G1
HL-60 cells [5]
  morphologic changes: clear morphologic changes suggestive of monocytic differentiation
[3]; 20 mg/kg i.p. twice a day
  average tumor size smaller than vehicle treated mice at end of study: more than 75%
[3]; 20 mg/kg once a day
  effect on growth of HL-60 subcutaneous tumors: could not detect any significant effects
[3]; first model, I.P. three times a week for 3 weeks from day 9
  inhibition of established HL-60 subcutaneous leukemic tumor growth: not Securinine was found to have significant in vivo activity
[8]
  cell death of specific leukemic cell lines and primary patient samples: quicly undergo cell death
[8]; 6BT 10 mM, Securinine 15 mM, up to 7 days (FIG. 7)
  differentiation of other AML cell lines and primary patient leukemic samples: effective in differentiating other AML cell lines besides HL-60 cells, as well as primary patient leukemic samples
[8]; samples suitable for analysis
  leukemia patient samples in which differentiation was induced: 8 of 10
p21
  p21 protein level: upregulated
60 cancer cell lines
  average LD50 across the 60 cancer cell lines: 97 µM
[9]; 20 mg/kg
  toxicity in mice: no evident toxicities
[9]; dose approximately two fold higher than 20 mg/kg
  seizures in mice: lead to seizures

## O=C1C=C2C=C[C@H]3C[C@]2(O1)[C@@H]1CCCCN13 [Virosecurinine, virosecurinine]
HL-60 cells [1]; 0.06 μM
  NBT (%): 20%
HL-60 cells [1]; 1.25 μM
  NBT (%): 30%
HL-60 cells [1]; 2.5 μM
  NBT (%): 50%
HL-60 cells [1]; 5 μM
  NBT (%): 99%
HL-60 cells [1]; 10 μM
  NBT (%): 95%
GABA A receptor
  GABA A receptor affinity: decreased GABA A receptor affinity

## C=C1/C(=C\C=C2/CCC[C@]3(C)[C@@H]([C@H](C)CCCC(C)(C)O)CC[C@@H]23)C[C@@H](O)C[C@@H]1O [Vitamin D, 1,25-dihydroxyvitamin D3, reference compound]
HL-60 cells [2]; 100 nM
  CD11b positive: 90%
  CD14 positive: 65%
